The text below walks through data of US10435415B2, “Substituted tetrahydrocarbazole and carbazole carboxamide compounds” (BRISTOL-MYERS SQUIBB COMPANY, priority 2013, dated 2019).

Read-outs that look alike come from different tables or passages of the source.

The target of one experiment is Jak2 tyrosine kinase (Homo sapiens (Human), UniProt O60674). Description: Jak2 Tyrosine Kinase Assay. Type of experiment: biochemical. The following applies: selectivity of Btk over Jak2.
Experiment [1] deals with BCR-stimulated CD69 expression on B cells in human whole blood. The experiment is described as follows: Whole Blood Assay of BCR-Stimulated CD69 Expression on B Cells. Type of experiment: cell-based.
Another experiment deals with human recombinant Btk (Homo sapiens (Human), UniProt Q06187). The experiment is described as follows: Human Recombinant Btk Enzyme Assay. Type of experiment: biochemical.
Sequence of human recombinant Btk (Q06187 whole entry): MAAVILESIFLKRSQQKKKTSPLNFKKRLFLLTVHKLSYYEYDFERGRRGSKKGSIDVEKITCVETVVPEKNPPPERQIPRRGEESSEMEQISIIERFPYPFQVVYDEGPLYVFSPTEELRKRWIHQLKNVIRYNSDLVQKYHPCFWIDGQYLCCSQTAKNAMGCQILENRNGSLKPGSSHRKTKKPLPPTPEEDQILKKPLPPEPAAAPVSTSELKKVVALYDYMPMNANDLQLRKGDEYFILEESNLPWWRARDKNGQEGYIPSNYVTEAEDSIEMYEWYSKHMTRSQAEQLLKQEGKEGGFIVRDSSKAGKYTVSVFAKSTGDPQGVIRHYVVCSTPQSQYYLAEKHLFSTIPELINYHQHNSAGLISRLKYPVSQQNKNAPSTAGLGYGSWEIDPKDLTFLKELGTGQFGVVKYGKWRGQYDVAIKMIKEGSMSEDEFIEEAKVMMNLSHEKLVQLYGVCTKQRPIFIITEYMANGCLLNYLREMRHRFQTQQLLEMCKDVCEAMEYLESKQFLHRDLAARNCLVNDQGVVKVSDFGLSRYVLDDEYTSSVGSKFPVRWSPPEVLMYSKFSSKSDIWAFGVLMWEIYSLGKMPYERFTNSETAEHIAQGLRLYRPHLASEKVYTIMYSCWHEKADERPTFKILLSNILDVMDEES

Sequence of Jak2 tyrosine kinase (O60674 whole entry): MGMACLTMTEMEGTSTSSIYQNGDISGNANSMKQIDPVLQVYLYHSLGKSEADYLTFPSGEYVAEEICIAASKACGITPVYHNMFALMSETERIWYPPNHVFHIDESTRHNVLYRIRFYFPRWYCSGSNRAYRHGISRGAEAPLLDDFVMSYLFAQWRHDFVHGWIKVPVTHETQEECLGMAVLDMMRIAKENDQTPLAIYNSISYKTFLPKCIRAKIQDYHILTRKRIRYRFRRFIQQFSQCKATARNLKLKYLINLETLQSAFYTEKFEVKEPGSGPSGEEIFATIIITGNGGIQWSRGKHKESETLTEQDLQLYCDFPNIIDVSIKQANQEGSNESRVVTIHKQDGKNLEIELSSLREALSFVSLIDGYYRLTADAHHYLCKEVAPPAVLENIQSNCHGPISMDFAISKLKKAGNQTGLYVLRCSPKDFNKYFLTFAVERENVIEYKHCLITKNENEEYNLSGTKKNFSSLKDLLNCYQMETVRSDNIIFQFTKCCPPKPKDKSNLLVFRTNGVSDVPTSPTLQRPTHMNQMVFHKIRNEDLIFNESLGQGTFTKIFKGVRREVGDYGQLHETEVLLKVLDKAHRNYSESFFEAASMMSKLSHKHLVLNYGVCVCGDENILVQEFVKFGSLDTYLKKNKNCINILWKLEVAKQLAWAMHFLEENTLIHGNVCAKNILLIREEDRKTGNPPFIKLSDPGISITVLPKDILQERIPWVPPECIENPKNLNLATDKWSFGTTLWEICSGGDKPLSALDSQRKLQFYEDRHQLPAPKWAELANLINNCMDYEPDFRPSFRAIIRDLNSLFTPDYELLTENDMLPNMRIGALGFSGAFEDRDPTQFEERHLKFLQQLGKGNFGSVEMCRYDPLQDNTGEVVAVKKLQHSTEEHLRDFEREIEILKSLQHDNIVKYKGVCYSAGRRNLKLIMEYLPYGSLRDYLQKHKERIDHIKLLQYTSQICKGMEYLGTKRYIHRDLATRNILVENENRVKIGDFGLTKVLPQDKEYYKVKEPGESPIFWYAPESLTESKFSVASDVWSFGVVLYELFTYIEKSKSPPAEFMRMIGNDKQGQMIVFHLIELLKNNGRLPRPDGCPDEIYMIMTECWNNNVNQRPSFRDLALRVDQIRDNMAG

`Cc1c(-c2c(F)cc(C(N)=O)c3[nH]c4cc(C(C)(C)O)ccc4c23)cccc1-n1c(=O)[nH]c2c(F)cc(F)cc2c1=O` [Example 49]: at Jak2 tyrosine kinase, the “Ratio of Jak2/Btk IC50 values” is listed as more than 2600.

As to “3-Chloro-4-(R)-(2-chloro-3-(8-fluoro-1-methyl-2,4-dioxo-1,2-dihydroquinazolin-3(4H)-yl)phenyl)-7-(2-hydroxypropan-2-yl)-9H-carbazole-1-carboxamide [Example 45]”, the IC50 (as a rule, the concentration needed to halve the response being measured) in experiment [1] worked out at 68 nM; at human recombinant Btk, 0.45 nM.

Consider `Cc1c(-c2c(F)cc(C(N)=O)c3[nH]c4cc(C(C)(C)O)ccc4c23)cccc1-n1c(=O)[nH]c2cc(F)ccc2c1=O` (single isomer, unassigned) [Example 51], for which the “Ratio of Jak2/Btk IC50 values” at Jak2 tyrosine kinase is more than 6700.

Take `Cc1c(-c2c(F)cc(C(N)=O)c3[nH]c4cc(C(C)(C)O)ccc4c23)cccc1-n1c(=O)[nH]c2c(F)cc(F)cc2c1=O` (single isomer, unassigned) [Example 50]: the “Ratio of Jak2/Btk IC50 values” on Jak2 tyrosine kinase amounted to 3800.

In turn, `Cc1c(-c2c(F)cc(C(N)=O)c3[nH]c4cc(C(C)(C)O)ccc4c23)cccc1-n1c(=O)[nH]c2c(Cl)cccc2c1=O` (single isomer, unassigned) [Example 54] yielded an IC50 in experiment [1] (Homo sapiens, B-cell) of 10 nM. In addition, the “Ratio of Jak2/Btk IC50 values” on Jak2 tyrosine kinase was 3400.

On to `Cc1c(-c2c(Cl)cc(C(N)=O)c3[nH]c4cc(C(C)(C)O)ccc4c23)cccc1-n1c(=O)[nH]c2c(F)cc(F)cc2c1=O` (single isomer, unassigned) [Example 48], for which, on Jak2 tyrosine kinase, the “Ratio of Jak2/Btk IC50 values” was 3300.

With `Cc1c(-c2c(F)cc(C(N)=O)c3[nH]c4cc(C(C)(C)O)ccc4c23)cccc1-n1c(=O)[nH]c2c(F)cc(F)cc2c1=O` (single isomer, unassigned) [Example 73], at Jak2 tyrosine kinase, the “Ratio of Jak2/Btk IC50 values” turned out to be 2200.

In the case of `Cc1c(-c2c(C#N)cc(C(N)=O)c3[nH]c4cc(C(C)(C)O)ccc4c23)cccc1-n1c(=O)cc2c(Cl)cccn2c1=O` (single isomer, unassigned) [Example 72], the “Ratio of Jak2/Btk IC50 values” at Jak2 tyrosine kinase amounted to 1600.

On to `Cc1c(-c2c(F)cc(C(N)=O)c3[nH]c4c(c23)CC[C@H](C(C)(C)O)C4)cccc1-n1c(=O)[nH]c2c(F)cccc2c1=O` (single isomer, unassigned) [Example 59], for which, in experiment [1], it took 260 nM to reach half-maximal inhibition (IC50).
